Measured values reported in article PMC10302146, “Dual Anta-Inhibitors Targeting Protein Kinase CK1δ and A2A Adenosine Receptor Useful in Neurodegenerative Disorders” (Molecules, 2023).

Columns and labels:
N13 microglial cells = assay: N13 cell viability (CellTiter 96 AQueous One, MTS), ligands alone; type: cell-based; settings: absence of CK cocktail
Method: Starting from these observations, since this double effect could be a suitable strategy for the treatment of chronic neurodegenerative diseases, in which neuroinflammation plays a crucial role, these compounds were tested on an in vitro model of neuroinflammation in comparison with the reference compounds. The experiments were performed using N13 microglial cells. The colorimetric method CellTiter 96® AQueous One Solution Cell Proliferation assay was used to determine the number of live cells in cytotoxicity or proliferation assays. The tetrazole compound MTS was bio-reduced by the cells into formazan, a colored product soluble in the cellular medium. The percentage of cell viability was analyzed through an absorbance reading at 492 nm. The concentrations of ligands were chosen based on the results of binding assays. Specifically, lower, similar, and higher concentrations than the Ki value were used.
Experiments were performed in triplicate.

N13 cell line = assay: Griess assay, nitrite production (antioxidant effect); type: cell-based; settings: for antioxidant activity (Griess Reagent System): compound 1 7500 nM, incubated for 1 hr, vs. ZM241385 10 nM
Text: In addition, since oxidative stress has received extensive attention as one important entry point in the pathogenesis of neurodegenerative diseases, the potential antioxidant profile of compounds 1 and 2 was investigated. Oxidative stress and neuroinflammation play synergistic roles in the promotion of neurodegenerative disease progression. During a CNS insult, there is an activation of microglial cells, which stimulate immune responses to instigate tissue repair. If the triggering cause of the immune response is eradicated, the immune response resolves, but if the initial stress persists, it will lead to an overproduction of neurotoxic factors such as chemokines and proinflammatory cytokines such as Tumor Necrosis Factor-α (TNF-α) and Interleukin-1β (IL-1β). This pathological state will lead to an overproduction of ROS and a state of oxidative stress. High levels of ROS inactivate or damage proteins, leading to cellular degeneration and death. Furthermore, ROS can activate proinflammatory pathways, further promoting a harmful environment for vulnerable neurons. In light of this, the potential antioxidant capacity of compounds was studied. […] The combination of anti-inflammatory and antioxidant activities makes compound 2 particularly appealing in counteracting two of the factors involved in the pathogenesis of neurodegenerative pathologies.
The N13 cell line was introduced into a 96-well UV-VIS transparent plate at a population of 1 × 10^4 cells per well in 98 μL of DMEM and incubated overnight. […] After 24 h of incubation, the media from each well was transferred into another 96-well plate, and then 50 µL of the sulphanilamide solution was placed into the wells. After 10 min of incubation at room temperature (rt), 50 µL of the NED solution was dispensed to all wells, and the plate was incubated at rt for an additional 5–10 min. After half an hour, absorbance was measured in the microplate reader GENiosPro using a 520–550 nm filter. All measurements were reproduced in 3–5 replicates. The nitric oxide formation was investigated by measuring nitrite (NO^2−), which is one of two primary breakdown products of NO. A nitrite standard reference curve was used for quantitative evaluation of the concentration of NO^2− in samples.

human recombinant A1AR = target: human recombinant A1AR; design: method as in PMID 37259317; settings: [3H]CCPA, membranes from CHO cells stably transfected; means ± standard errors; read-out: KiA1; cited from earlier work

Row | Structure (SMILES) | cell viability vs. control (N13 microglial cells; 0.625 µM, 30 min) | cell viability vs. control (N13 microglial cells; 7.5 µM, 30 min) | cell viability vs. control (N13 microglial cells; 7.5 µM, 60 min) | antioxidant activity (Griess Reagent System) (N13 cell line; compound 2 4500 nM) | Ki (human recombinant A1AR) [µM] | cell viability vs. control (N13 microglial cells; 0.375 µM, 30 min) | cell viability vs. control (N13 microglial cells; 4.5 µM, 60 min) | cell viability vs. control (N13 microglial cells; 0.375 and 0.75 µM, 60 min) | cell viability vs. control (N13 microglial cells; all concentrations (0.375, 0.75, 4.5 µM), 30 min) | amount of nitrite produced vs. control (N13 cell line; 4500 nM) | compensation of oxidative stress caused by the CK cocktail (N13 cell line; compound 2 4500 nM, ZM241385 10 nM)
1 | CN(C)c1nc(N)c2ncn(C3CCCC3)c2n1 [compound 1, 9-Cyclopentyl-N2,N2-dimethyl-9H-purine-2,6-diamine] | 112% ± 2.4 | lower cell viability with respect to the control | cell viability similar to the control | no significant antioxidant activity | 3.34 ± 0.658 |  |  |  |  |  | 
2 | CN(C)c1nc(NCc2nc3ccccc3[nH]2)c2ncn(C3CCCC3)c2n1 [compound 2, N^6-methyl-(2-benzimidazolyl)-2-dimethyamino-9-cyclopentyladenine] |  |  |  | important antioxidant effect similar to that of the reference compound | 2.9 ± 0.648 | 86% ± 1.2 | 109% ± 1.4 | decrease in cell viability similar to 30 min of incubation | decrease in cell viability | inferior to that revealed in the control | successfully compensated
